Experimental data: patent US20040149200A1, “Crystals of an oligosaccharides and process for preparation thereof” (priority 2001, published 2004)

Assay: Storage stability of Oligosaccharide Crystals (I) and freeze-dried Oligosaccharide (I) powders (residual rate by HPLC)
Assay type: physicochemical
Conditions: 105° C. in the atmosphere under ordinary pressure
Procedure: The storage stability of Oligosaccharide Crystals (I) obtained in Examples 1 to 3 and freeze-dried Oligosaccharide (I) powders obtained in Reference Examples 1 to 3 was examined by keeping them at 105° C. in the atmosphere under ordinary pressure for 20 days and measuring the residual rate of Oligosaccharides (I).
The residual rate of Oligosaccharides (I) in the samples was measured by high performance liquid chromatography (HPLC) and expressed in terms of HPLC purity (%)
Measurement conditions for HPLC are as follows.
Analyzer: product of Dionex Corporation
Column temperature: 30° C.
Mobile phase: 10-100% aqueous solution of NaOH
(500 mmol/L) (Gradient elution in 11 minutes)
Detection: electrochemical detection (PAD method)

Residual rate of oligosaccharides: HPLC purity (%) (days that passed: 0)	Residual rate of oligosaccharides: HPLC purity (%) (days that passed: 1)	Residual rate of oligosaccharides: HPLC purity (%) (days that passed: 4)	Residual rate of oligosaccharides: HPLC purity (%) (days that passed: 7)	Residual rate of oligosaccharides: HPLC purity (%) (days that passed: 20)	SMILES
99.3%	99.0%	99.2%	99.0%	98.8%	CC(=O)N[C@H]1[C@H](O[C@H]2[C@@H](O)[C@@H](CO)O[C@@H](O[C@H]3[C@H](O)[C@@H](O)C(O)O[C@@H]3CO)[C@@H]2O)O[C@H](CO)[C@@H](O[C@@H]2O[C@H](CO)[C@H](O)[C@H](O)[C@H]2O)[C@@H]1O (stereo partly drawn) [Crystals No. 2, Galβ1, 4GlcNAcβ1, 3Galβ1, 4Glc]
98.0%	99.7%	99.7%	99.7%	98.9%	CC(=O)N[C@H]1[C@H](O[C@H]2[C@@H](O)[C@@H](CO)O[C@@H](O[C@H]3[C@H](O)[C@@H](O)C(O)O[C@@H]3CO)[C@@H]2O)O[C@H](CO)[C@@H](O)[C@@H]1O (stereo partly drawn) [Crystals No. 1, GlcNAcβ1, 3Galβ1, 4Glc]
98.6%	98.2%	97.4%	95.4%	85.2%	CC(=O)N[C@H]1[C@H](O[C@H]2[C@@H](O)[C@@H](CO)O[C@@H](O[C@H]3[C@H](O)[C@@H](O)C(O)O[C@@H]3CO)[C@@H]2O)O[C@H](CO)[C@@H](O[C@@H]2O[C@H](CO)[C@H](O)[C@H](O[C@@H]3O[C@H](CO)[C@@H](O)[C@H](O)[C@H]3NC(C)=O)[C@H]2O)[C@@H]1O (stereo partly drawn) [Freeze-dried GlcNAcβ1, 3Gal-β1, 4GlcNAcβ1, 3Galβ1, 4Glc powd] [GlcNAcβ1,3Galβ1,4GlcNAcβ1,3Galβ1,4Glc]
98.8%	99.3%	99.0%	99.0%	99.3%	CC(=O)N[C@H]1[C@H](O[C@H]2[C@@H](O)[C@@H](CO)O[C@@H](O[C@H]3[C@H](O)[C@@H](O)C(O)O[C@@H]3CO)[C@@H]2O)O[C@H](CO)[C@@H](O[C@@H]2O[C@H](CO)[C@H](O)[C@H](O[C@@H]3O[C@H](CO)[C@@H](O)[C@H](O)[C@H]3NC(C)=O)[C@H]2O)[C@@H]1O (stereo partly drawn) [Crystals No. 3, GlcNAcβ1, 3Galβ1, 4GlcNAcβ1, 3Galβ1, 4Glc]
99.8%	99.7%	97.0%	98.8%	93.8%	CC(=O)N[C@H]1[C@H](O[C@H]2[C@@H](O)[C@@H](CO)O[C@@H](O[C@H]3[C@H](O)[C@@H](O)C(O)O[C@@H]3CO)[C@@H]2O)O[C@H](CO)[C@@H](O)[C@@H]1O (stereo partly drawn) [Freeze-dried GlcNAcβ1, 3Gal-β1, 4Glc powders] [GlcNAcβ1,3Galβ1,4Glc]
99.3%	98.6%	97.6%	96.2%	90.9%	CC(=O)N[C@H]1[C@H](O[C@H]2[C@@H](O)[C@@H](CO)O[C@@H](O[C@H]3[C@H](O)[C@@H](O)C(O)O[C@@H]3CO)[C@@H]2O)O[C@H](CO)[C@@H](O[C@@H]2O[C@H](CO)[C@H](O)[C@H](O)[C@H]2O)[C@@H]1O (stereo partly drawn) [Freeze-dried Galβ1, 4GlcNAc-β1, 3Galβ1, 4Glc powders] [Galβ1,4GlcNAcβ1,3Galβ1,4Glc]
